Results reported in the supplement of paper PMC10307832.

Experiments:
Test in all cases: relative viability (nuclei count vs DMSO), 5 days (fraction); higher = more cells survive
Motesanib + Bortezomib = compound: CC1(C)CNc2cc(NC(=O)c3cccnc3NCc3ccncc3)ccc21 [Motesanib] + CC(C)C[C@H](NC(=O)[C@H](Cc1ccccc1)NC(=O)c1cnccn1)B(O)O [Bortezomib] (partner 0.002 µM)
Method in brief: (§1)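 One day after seeding in 1536-well plates, lung cancer cell lines were dosed by pin tool. Dosing was either single-drug or a fixed anchor-drug dose plus five library-drug doses (not always all listed) in √10 steps. After 5 days, nuclei were stained in one fix-and-stain step and counted on 4× images, and relative viability is the nuclei count of treated wells over that of vehicle wells, given as the median of duplicate plates.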

Motesanib + Pictilisib = compound: CC1(C)CNc2cc(NC(=O)c3cccnc3NCc3ccncc3)ccc21 [Motesanib] + CS(=O)(=O)N1CCN(Cc2cc3nc(-c4cccc5[nH]ncc45)nc(N4CCOCC4)c3s2)CC1 [Pictilisib] (partner 1 µM)
Method in brief: as §1

Motesanib + Olaparib = compound: CC1(C)CNc2cc(NC(=O)c3cccnc3NCc3ccncc3)ccc21 [Motesanib] + O=C(c1cc(Cc2n[nH]c(=O)c3ccccc23)ccc1F)N1CCN(C(=O)C2CC2)CC1 [Olaparib] (partner 8 µM)
Method in brief: as §1

[1] = compound: C[C@@]1(C(=O)Nc2ccc(F)nc2)CCCN1c1nc(Nc2cc(C3CC3)n[nH]2)c2cccn2n1 + Cc1nc(Nc2ncc(C(=O)Nc3c(C)cccc3Cl)s2)cc(N2CCN(CCO)CC2)n1 [Dasatinib] (partner 0.075 µM)
Method in brief: as §1

Cell Line | relative viability (Motesanib + Bortezomib; first compound 0.01 µM) | relative viability (Motesanib + Bortezomib; first compound 0.03162 µM) | relative viability (Motesanib + Bortezomib; first compound 0.1 µM) | relative viability (Motesanib + Bortezomib; first compound 0.3162 µM) | relative viability (Motesanib + Bortezomib; first compound 1 µM) | relative viability (Motesanib + Pictilisib; first compound 0.01 µM) | relative viability (Motesanib + Pictilisib; first compound 0.03162 µM) | relative viability (Motesanib + Pictilisib; first compound 0.1 µM) | relative viability (Motesanib + Pictilisib; first compound 0.3162 µM) | relative viability (Motesanib + Pictilisib; first compound 1 µM) | relative viability (Motesanib + Olaparib; first compound 0.01 µM) | relative viability (Motesanib + Olaparib; first compound 0.03162 µM) | relative viability (Motesanib + Olaparib; first compound 0.1 µM) | relative viability (Motesanib + Olaparib; first compound 0.3162 µM) | relative viability (Motesanib + Olaparib; first compound 1 µM) | relative viability ([1]; first compound 0.04 µM) | relative viability ([1]; first compound 0.1265 µM) | relative viability ([1]; first compound 0.4 µM) | relative viability ([1]; first compound 1.265 µM)
LOU-NH91 | 0.468 | 0.507 | 0.486 | 0.52 | 0.581 | 0.466 | 0.523 | 0.563 | 0.547 | 0.568 | 0.925 | 0.98 | 0.88 | 0.943 | 0.959 | 0.461 | 0.449 | 0.395 | 0.286
LU99A | 1.12 | 1.37 | 0.921 | 1.22 | 1.19 | 0.348 | 0.327 | 0.309 | 0.386 | 0.352 | 0.284 | 0.268 | 0.271 | 0.255 | 0.263 | 0.409 | 0.257 | 0.219 | 0.197
LXF-289 | 0.985 | 0.976 | 1.03 | 1.13 | 1.03 | 0.776 | 0.811 | 0.774 | 0.806 | 0.835 | 1.04 | 0.992 | 0.926 | 1.21 | 1.12 | 0.13 | 0.119 | 0.0865 | 0.0646
NCI-H23 | 1.06 | 0.766 | – | 1.21 | 1.16 | 0.415 | 0.41 | – | 0.562 | 0.53 | 0.354 | 0.299 | 0.308 | 0.281 | 0.348 | 0.653 | 0.384 | 0.325 | 0.269
NCI-H322M | 1.32 | 1.24 | 1.39 | 1.36 | 1.23 | 0.52 | 0.544 | 0.511 | 0.439 | 0.538 | 0.82 | 0.762 | 0.886 | 0.803 | 0.812 | 0.239 | 0.197 | 0.241 | 0.225
NCI-H441 | 0.542 | 0.47 | 0.434 | 0.644 | 0.583 | 0.414 | 0.524 | 0.518 | 0.441 | 0.506 | 0.542 | 0.452 | 0.436 | 0.627 | 0.496 | 0.385 | 0.155 | 0.223 | 0.203
NCI-H460 | 1.09 | 1.18 | 1.08 | 1.25 | 1.1 | 0.356 | 0.424 | 0.302 | 0.364 | 0.493 | 0.413 | 0.396 | 0.484 | 0.446 | 0.402 | 0.258 | 0.101 | 0.0641 | 0.0353
NCI-H520 | 0.482 | 0.747 | 0.432 | 0.653 | 0.693 | 0.269 | 0.267 | 0.345 | 0.284 | 0.207 | 0.319 | 0.32 | 0.294 | 0.297 | 0.392 | 0.207 | 0.176 | 0.176 | 0.229
NCI-H596 | 0.995 | 0.872 | – | 1.18 | 0.995 | 0.391 | 0.427 | 0.362 | 0.384 | 0.406 | 0.792 | 0.623 | 0.648 | 0.677 | 0.646 | 0.552 | 0.439 | 0.415 | 0.372
NCI-H647 | 0.984 | 1.01 | 0.974 | 1.06 | 0.883 | – | 0.394 | 0.408 | 0.333 | 0.442 | 0.48 | 0.638 | 0.496 | 0.629 | 0.611 | 0.361 | 0.0884 | 0.105 | 0.214
NCI-H650 | 0.805 | 0.954 | 0.83 | 1.02 | 0.647 | 0.832 | 0.757 | 0.875 | 0.992 | 0.854 | 0.446 | 0.382 | 0.42 | 0.39 | 0.426 | 0.404 | 0.283 | 0.321 | 0.29
NCI-H661 | 0.795 | 0.767 | 0.765 | 0.849 | 1.04 | 0.327 | 0.35 | 0.348 | 0.379 | 0.43 | 0.748 | 0.76 | 0.784 | 0.749 | 0.774 | 0.762 | 0.841 | 0.669 | 0.517
NCI-H727 | 0.735 | 0.926 | 0.883 | 0.919 | 0.818 | 0.324 | 0.369 | 0.463 | 0.464 | 0.379 | 0.937 | 0.614 | 0.761 | 0.779 | 0.6 | 0.278 | 0.182 | 0.273 | 0.229
NCI-H838 | 0.887 | 0.957 | 0.758 | 0.965 | 0.891 | 0.496 | 0.441 | 0.462 | 0.449 | 0.508 | 0.778 | 0.765 | 0.792 | 0.746 | 0.804 | 0.299 | 0.198 | 0.187 | 0.213
NCI-H1355 | 1.2 | 1.33 | 1.22 | 1.35 | 1.18 | 0.47 | 0.475 | 0.406 | 0.502 | 0.485 | 0.726 | 0.771 | 0.773 | 0.747 | 0.707 | 0.545 | 0.488 | 0.434 | 0.421
NCI-H1437 | 0.368 | 0.525 | 0.434 | 0.626 | 0.615 | 0.441 | 0.441 | 0.467 | 0.502 | 0.406 | 0.637 | 0.631 | 0.63 | 0.682 | 0.657 | 0.218 | 0.236 | 0.223 | 0.125
NCI-H1650 | 0.204 | – | 0.191 | 0.185 | 0.207 | 0.592 | – | 0.516 | 0.495 | 0.517 | 0.746 | 0.875 | 0.914 | 0.632 | 0.843 | 0.313 | 0.266 | 0.249 | 0.144
